Drawing on US9988399B2, “Bicyclic compounds as ACC inhibitors and uses thereof” (Gilead Apollo, LLC, priority 2013, dated 2018), this text covers IC50 for 5 compounds.

What is called pIC50 is −log10 of the IC50, conventionally taken in molar units.

One assay concerns ACC1. The settings on record: ACC1 isolated from rat, mouse, monkey and human; cited from earlier work.
In assay [1] the test system is ACC2. The settings on record: ACC2 isolated from rat, mouse, monkey and human; cited from earlier work.
Assay [2] concerns the target ACC2 (Homo sapiens, UniProt O00763). As to the kind of experiment: in vitro ACC2 inhibition assay (ADP-Glo). Format: biochemical. The settings on record: 5 nM ACC2, 20 μM ATP, 20 μM acetyl-CoA. How it is done:
An exemplary procedure for the in vitro ACC inhibition assay, which can be used to determine the inhibitory action of compounds of the invention toward either ACCT or ACC2, follows. The ADP-Glo™ Kinase Assay kit from Promega is used. The ADP-Glo™ Kinase Assay is a luminescent ADP detection assay to measure enzymatic activity by quantifying the amount of ADP produced during an enzyme reaction. The assay is performed in two steps; first, after the enzyme reaction, an equal volume of ADP-Glo™ Reagent is added to terminate the reaction and deplete the remaining ATP. Second, the Kinase Detection Reagent is added to simultaneously convert ADP to ATP and allow the newly synthesized ATP to be measured using a luciferase/luciferin reaction. Luminescence can be correlated to ADP concentrations by using an ATP-to-ADP conversion curve. The detailed procedure is as follows. 50 μL of the compound being tested (600 uM in DMSO) is added to a 384-well dilution plate. The compound is diluted 1:3 in succession in DMSO for each row for 11 wells. […] is added to 384-well white Optiplate assay plate. 0.5 μL diluted compound solution in each column from step 2 is added to the assay plate, each row containing 2 replicates. For the last 2 rows, add 0.5 μL negative control (DMSO) in one row and 0.5 μL positive control (compound I-97) in the other. The plates are incubated at room temperature for 15 minutes. 5 μL substrate working solution is added to each well to initiate reaction. Final ACC2 reaction concentrations consist of: 5 nM ACC2, 20 μM ATP, 20 μM acetyl-CoA, 12 mM NaHCO3, 0.01% Brij35, 2 mM DTT, 5% DMSO, test compound concentrations: 30 μM, 10 μM, 3.33 μM, 1.11 μM, 0.37 μM, 0.123 μM, 0.0411 μM, 0.0137 μM, 0.00457 μM, 0.00152 μM, and 0.00051 μM. Plates are incubated at room temperature for 60 minutes. 10 μL ADP glo reagent is added. Plates are incubated at room temperature for 40 minutes. 20 μL kinase detection reagent is added. Plates are incubated at room temperature for 40 minutes, then read on a Perkin Elmer EnVision 2104 plate reader for luminescence as Relative Light Units (RLU).
Data for each concentration, as well as the positive and negative controls are averaged, and the standard deviation calculated. Percent inhibition is calculated by the formula: 100×(average negative control−compound)/(average negative control−average positive control). The IC50 for each compound is calculated by fitting the data with a non-linear regression equation: Y=Bottom+(Top-Bottom)/(1+10^((Log IC50−X)*HillSlope)), where X is the log of compound concentration and Y is percent inhibition.

pIC50: −log10 of the molar value. A value given as a limit tells only on which side of the number the result lay.

Sequence of ACC2 (Homo sapiens, UniProt O00763) (O00763 whole entry, species assumed): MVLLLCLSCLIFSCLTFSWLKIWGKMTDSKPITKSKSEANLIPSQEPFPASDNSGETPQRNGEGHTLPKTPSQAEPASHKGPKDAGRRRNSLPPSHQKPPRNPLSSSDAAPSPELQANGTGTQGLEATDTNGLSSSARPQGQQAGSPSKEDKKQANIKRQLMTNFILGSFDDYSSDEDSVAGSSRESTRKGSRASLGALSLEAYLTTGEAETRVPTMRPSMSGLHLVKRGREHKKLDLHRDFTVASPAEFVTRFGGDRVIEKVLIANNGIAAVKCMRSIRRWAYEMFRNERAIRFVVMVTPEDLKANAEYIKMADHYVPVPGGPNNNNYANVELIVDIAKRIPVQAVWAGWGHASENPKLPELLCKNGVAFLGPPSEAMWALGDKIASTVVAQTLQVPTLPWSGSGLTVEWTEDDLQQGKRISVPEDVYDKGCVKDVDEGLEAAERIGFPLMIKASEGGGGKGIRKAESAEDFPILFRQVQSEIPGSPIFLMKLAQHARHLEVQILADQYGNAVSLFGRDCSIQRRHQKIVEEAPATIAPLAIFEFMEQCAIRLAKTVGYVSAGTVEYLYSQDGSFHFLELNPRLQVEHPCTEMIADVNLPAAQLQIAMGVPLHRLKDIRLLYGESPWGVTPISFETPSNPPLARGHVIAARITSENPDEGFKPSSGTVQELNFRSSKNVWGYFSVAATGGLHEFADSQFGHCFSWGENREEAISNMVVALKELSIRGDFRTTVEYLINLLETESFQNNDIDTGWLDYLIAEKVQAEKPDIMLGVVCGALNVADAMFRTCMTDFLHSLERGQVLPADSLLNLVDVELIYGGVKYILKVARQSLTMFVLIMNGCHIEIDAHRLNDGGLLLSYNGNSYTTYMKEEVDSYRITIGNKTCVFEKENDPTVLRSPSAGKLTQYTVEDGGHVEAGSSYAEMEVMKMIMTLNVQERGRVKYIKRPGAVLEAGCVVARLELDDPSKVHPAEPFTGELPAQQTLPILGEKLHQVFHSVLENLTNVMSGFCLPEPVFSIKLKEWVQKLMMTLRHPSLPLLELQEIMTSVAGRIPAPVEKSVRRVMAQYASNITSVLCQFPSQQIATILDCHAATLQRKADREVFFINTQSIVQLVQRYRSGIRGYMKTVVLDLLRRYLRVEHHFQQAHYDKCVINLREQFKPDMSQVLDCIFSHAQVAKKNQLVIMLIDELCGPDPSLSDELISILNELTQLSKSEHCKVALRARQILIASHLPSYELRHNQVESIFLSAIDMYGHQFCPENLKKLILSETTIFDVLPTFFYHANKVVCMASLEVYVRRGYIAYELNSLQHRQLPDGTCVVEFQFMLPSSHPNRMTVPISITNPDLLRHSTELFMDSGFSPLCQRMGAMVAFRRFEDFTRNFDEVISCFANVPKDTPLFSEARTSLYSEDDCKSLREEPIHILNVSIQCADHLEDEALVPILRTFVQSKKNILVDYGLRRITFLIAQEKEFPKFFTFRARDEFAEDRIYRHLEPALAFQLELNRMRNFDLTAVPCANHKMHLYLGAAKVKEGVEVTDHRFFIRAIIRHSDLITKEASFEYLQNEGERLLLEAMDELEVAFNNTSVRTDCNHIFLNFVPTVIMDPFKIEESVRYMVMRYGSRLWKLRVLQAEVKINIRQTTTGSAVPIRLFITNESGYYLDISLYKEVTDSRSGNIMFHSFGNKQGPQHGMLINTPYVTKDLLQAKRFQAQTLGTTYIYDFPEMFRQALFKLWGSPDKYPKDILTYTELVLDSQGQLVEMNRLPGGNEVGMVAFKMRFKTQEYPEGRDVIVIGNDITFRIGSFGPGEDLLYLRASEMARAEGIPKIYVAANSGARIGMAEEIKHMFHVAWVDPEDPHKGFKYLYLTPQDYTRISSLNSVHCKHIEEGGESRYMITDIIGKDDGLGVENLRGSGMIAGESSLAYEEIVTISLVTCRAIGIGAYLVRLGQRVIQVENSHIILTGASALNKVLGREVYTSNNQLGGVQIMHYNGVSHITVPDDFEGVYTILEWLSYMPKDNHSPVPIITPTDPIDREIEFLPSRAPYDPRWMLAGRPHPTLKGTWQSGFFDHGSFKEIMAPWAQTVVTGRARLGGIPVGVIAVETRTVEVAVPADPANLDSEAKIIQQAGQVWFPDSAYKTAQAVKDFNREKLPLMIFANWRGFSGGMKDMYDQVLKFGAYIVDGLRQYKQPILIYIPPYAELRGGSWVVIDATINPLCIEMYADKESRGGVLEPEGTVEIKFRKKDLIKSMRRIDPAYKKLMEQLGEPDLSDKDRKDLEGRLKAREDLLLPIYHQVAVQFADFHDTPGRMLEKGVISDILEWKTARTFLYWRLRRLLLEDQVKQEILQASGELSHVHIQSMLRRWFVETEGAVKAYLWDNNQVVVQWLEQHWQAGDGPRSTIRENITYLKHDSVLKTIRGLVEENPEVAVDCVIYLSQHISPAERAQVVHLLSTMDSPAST

With `O=C(c1c2ccccc2cc2ccccc12)N1CCC(N2CCC[C@@H](C(=O)N3CCOCC3)C2)CC1` [CP-640186], the pIC50 in the assay on ACC1 and with ACC2 [1] was approximately 7.22 each time. Regarding `COc1ccccc1CCc1cn(CC(=O)O)c(=O)c2c(C)c(-c3ncco3)sc12` [Compound I-33, 2-(7-(2-methoxyphenethyl)-3-methyl-2-(oxazol-2-yl)-4-oxothieno[3,2-c]pyridin-5(4H)-yl)acetic acid], the pIC50 at ACC2 [2] is not below 6.00. Still for that read-out and setting: the same measure for `COc1ccccc1CCc1cn(CC(N)=O)c(=O)c2c(C)c(-c3ncco3)sc12` [Compound I-34, 2-(7-(2-methoxyphenethyl)-3-methyl-2-(oxazol-2-yl)-4-oxothieno[3,2-c]pyridin-5(4H)-yl)acetamide]: not below 6.00; for `COc1ccccc1CCn1c(=O)n(CC(=O)O)c(=O)c2nc(-c3ncco3)sc21` [Compound I-35, 2-(4-(2-methoxyphenethyl)-2-(oxazol-2-yl)-5,7-dioxo-4,5-dihydrothiazolo[5,4-d]pyrimidin-6(7H)-yl)acetic acid]: 4.70 to 5.30; for `COc1ccccc1CCn1c(=O)n(CC(=O)O)c(=O)c2c1nc(-c1ncco1)n2C` [Compound I-36, 2-(3-(2-methoxyphenethyl)-7-methyl-8-(oxazol-2-yl)-2,6-dioxo-2,3,6,7-tetrahydro-1H-purin-1-yl)acetic acid]: 4.70 to 5.30.
